In patent US20250129041A1, “MOLECULAR GLUE AND USES THEREOF” (ASTROGEN, INC., priority 2023, published 2025):

Experiments:
TA98 and TA100 strains = details: positive controls
Procedure: (§1) First, TA98 and TA 100 strains, which detect frameshift mutations and point mutations, respectively, were cultured. Then, AST-DT-218 was dissolved in a solvent and diluted to various concentrations (20.5 μg/mL, 61.7 μg/mL 185.1 μg/mL, […], 1666.6 μg/mL, and 5000 μg/mL) to prepare an […] (a metabolic activation system; concentration: 30%) including liver enzyme extracts and supplements. Into a histidine-deficient medium at different concentrations of AST-DT-218, (i) the TA98 strain was inoculated without the […] (TA98−S9), (ii) the TA98 strain was inoculated by mixing it with the […] (TA98+S9), (iii) the TA100 strain was inoculated without the […] (TA100−S9), and (iv) the TA100 strain was inoculated by mixing it with the S9 mixture (TA100+S9). As a solvent control, which is a negative control, only the solvent was inoculated into a histidine-deficient medium, and only a pure solvent was used in the absence of any compound. […] After culturing for 48 to 72 hours in each medium, the number of colonies generated was counted to calculate the mutation rate, and the mutagenic effect was compared depending on the presence or absence of the S9 mixture to analyze the effect on metabolic activation.

CRBN proteins = CRBN proteins (Homo sapiens (Human), UniProt Q96SW2); assay: CRBN affinity test; type: binding; details: purified CRBN proteins expressed in E. coli
Procedure: First, CRBN proteins were expressed in E. coli and purified, and then the purified CRBN proteins were dissolved in a buffer solution (PBS). […] After the mixture was sufficiently mixed and reacted, the binding strength at each concentration was measured to collect data, and a binding curve was created therefrom (see FIG. 13), and the KD (equilibrium dissociation constant) values were derived therefrom (see Table 9 and FIG. 14).

Huh7 [1] = assay: Dose response curve, cell survival, 48 hours, Huh7; type: cell-based; details: Homo sapiens, Huh-7, Hepatocellular Carcinoma, read-out: IC50 of AST-DT-218, Huh7
Procedure: (§2) A DRC was created to determine whether AST-DT-218 is effective in killing various cancer cells. First, hepatoma cell lines (Huh7 and Hep3B), non-small cell lung cancer cell lines (NCI-H460 and NCI-H1299), pancreatic cancer cell lines (PANC-1 and Mia-Paca-2), rectal cancer cell lines (HT29 and HCT116), a gastric adenocarcinoma cell line (AGS), a malignant melanoma cell line (A375), and an adenocarcinoma cell line (MDA-MB-231) were prepared. Each cell line was cultured in a flask, and the cells which reached the logarithmic growth phase were prepared, washed with PBS, harvested with trypsin, centrifuged to adjust the cell density, and then resuspended in an appropriate culture medium, and plated into 96-well plates. After culturing until the cells attached to the plates and stabilized, AST-DT-218 and controls (lenalidomide and pomalidomide) were prepared and diluted to various concentrations (10-point by diluting by half from the highest concentration of 50 μM). […] After completion of the culture, cell survival was assessed using a cell counting method through cell nuclear staining. Data were collected by measuring cell survival at each concentration, and then DRC was created (see FIGS. 5 to 12) and IC50 values were calculated (see Table 8).

AGS = assay: Dose response curve, cell survival, 48 hours, AGS; type: cell-based; details: Homo sapiens, Gastric Adenocarcinoma, read-out: IC50 of AST-DT-218, AGS
Procedure: as §2

NCI-H460 = assay: Dose response curve, cell survival, 48 hours, NCI-H460; type: cell-based; details: Homo sapiens, Non-Small Cell Lung Cancer, read-out: IC50 of AST-DT-218, NCI-H460
Procedure: as §2

Hep3B [2] = assay: HCC cell survival by cell nuclear staining, 24 hours, Hep3B; type: cell-based; details: Homo sapiens
Procedure: (§3) An indication expansion experiment was performed to evaluate the potential of AST-DT-218 for treating hepatocellular carcinoma (HCC). First, HCC cell lines (Huh7, Hep3B, SNU449, and SNU475) were prepared, and AST-DT-218 and Sorafenib were at the highest concentration of 50 μM, serially diluted by half starting therefrom, thereby preparing 10 concentrations (50 μM, 25 μM, 12.5 μM, etc.). HCC cell lines (Huh7, Hep3B, SNU449, SNU475) were seeded into 96-well plates, in which each well was treated with AST-DT-218 and Sorafenib solutions, and the cells were cultured in an incubator for 24 hours. Then, the cell survival at each concentration was evaluated by measuring the cell count using cell nuclear staining, and a concentration-response curve of cell survival was created based on the data, and the IC50 value was derived.

PANC-1 = assay: Dose response curve, cell survival, 48 hours, PANC-1; type: cell-based; details: Homo sapiens, Pancreatic Carcinoma, read-out: IC50 of AST-DT-218, PANC-1
Procedure: as §2

A375 = assay: Dose response curve, cell survival, 48 hours, A375; type: cell-based; details: Homo sapiens, A-375, Malignant Melanoma, read-out: IC50 of AST-DT-218, A375
Procedure: as §2

Mia-Paca-2 = assay: Dose response curve, cell survival, 48 hours, Mia-Paca-2; type: cell-based; details: Homo sapiens, Pancreatic Carcinoma, read-out: IC50 of AST-DT-218, Mia-Paca-2
Procedure: as §2

[3] = Maximum tolerated dose (MTD) test; type: in vivo; details: mice, daily injection day 1 to day 5, highest dose 20 mg/kg
Procedure: The in vivo maximum tolerated dose (MTD) of AST-DT-218 was evaluated to determine the highest dose at which AST-DT-218 could be safely administered to experimental animals. First, the compound AST-DT-218 and the preparation solvent to be used in the experiment were prepared. The solvent was a mixture of 5% Tween 80, 40% PEG400, 10% DMSO, and 45% DPBS, and AST-DT-218 was prepared according to each dose as shown in Table 6 below. Mice (n=5) to be used in the experiment were prepared and divided into five groups to perform the experiment. The control group was injected with only 0 mg/kg of the solvent, and the remaining groups were injected with the AST-DT-218 solution at 2.5 mg/kg, 5 mg/kg, 10 mg/kg, and 20 mg/kg, respectively, and the injection amount was set to 0.1 mL for a 20 g mouse.
From day 1 to day 5, the injections were administered at the same time daily, and the changes in weight and abnormal behaviors of the mice were observed and data were collected during the experiment.

[4] = Single dose toxicity study; type: in vivo; details: rats
Procedure: The toxicity of AST-DT-218 at a single dose was evaluated. First, healthy adult male and female rats were prepared and then fasted for 12 hours before the experiment. Solutions were prepared for each dose group (0 mg/kg, 500 mg/kg, 1,000 mg/kg, and 2,000 mg/kg), and the final solution volume was set at 40 mL/kg.
For […] to 15 days after administration, clinical symptoms (e.g., colored stool, hairloss, etc.), changes in weight, changes in food consumption, and changes in organ weight were observed, and ophthalmic examinations were performed and autopsies were performed.

Huh7 [5] = assay: HCC cell survival by cell nuclear staining, 24 hours, Huh7; type: cell-based; details: Homo sapiens, Huh-7
Procedure: as §3

NCI-H1299 = assay: Dose response curve, cell survival, 48 hours, NCI-H1299; type: cell-based; details: Homo sapiens, Non-Small Cell Lung Cancer, read-out: IC50 of AST-DT-218, NCI-H1299
Procedure: as §2

HT29 = assay: Dose response curve, cell survival, 48 hours, HT29; type: cell-based; details: Homo sapiens, HT-29, Colorectal Carcinoma, read-out: IC50 of AST-DT-218, HT29
Procedure: as §2

SNU449 = assay: HCC cell survival by cell nuclear staining, 24 hours, SNU449; type: cell-based; details: Homo sapiens, SNU-449
Procedure: as §3

MDA-MB-231 = assay: Dose response curve, cell survival, 48 hours, MDA-MB-231; type: cell-based; details: Homo sapiens, Adenocarcinoma, read-out: IC50 of AST-DT-218, MDA-MB-231
Procedure: as §2

hERG channel [6] = molecular target: T1, hERG channel (Homo sapiens (Human), UniProt Q12809); assay: hERG-related cardiotoxicity test using automated patch clamp; type: cell-based; details: hERG channel-expressing CHO cell line
Procedure: In order to evaluate the inhibitory effect of AST-DT-218 on the hERG channel and determine its potential to induce cardiotoxicity, a hERG-related cardiotoxicity test using an automated patch clamp was performed. First, a hERG channel-expressing cell line (CHO) was cultured, and AST-DT-218 was dissolved in a solvent (DMSO) and diluted to a concentration (1 μM). Cells were mounted on a patch-clamp device, and the electrical activity of hERG channels was recorded by measuring voltage-dependent currents. The inhibitory effect was calculated as the current reduction ratio, and the IC50 value was derived by constructing a concentration-response curve.

TA100 strain = test system: TA100 strain
Procedure: as §1

TA98 strain = test system: TA98 strain
Procedure: as §1

SNU475 = assay: HCC cell survival by cell nuclear staining, 24 hours, SNU475; type: cell-based; details: Homo sapiens, SNU-475
Procedure: as §3

hERG channel [7] = molecular target: T1, hERG channel; assay: hERG ligand binding assay; details: membranes of hERG channel-expressing HEK293 cell line
Procedure: Additionally, a ligand binding assay was performed to measure the affinity of AST-DT-218 that binds to the hERG channel. First, a hERG channel-expressing cell line (HEK293) was cultured, and then the cells were centrifuged to extract the cell membrane, and membrane proteins were prepared using a cell lysis reagent. A labeled hERG ligand was prepared and AST-DT-218 was dissolved in a solvent (DMSO) and diluted to a concentration (1 μM). After dispensing the cell membrane proteins into a 96-well plate or appropriate experimental equipment, competitive binding experiments were performed by adding AST-DT-218 at various concentrations to each well and incubated for 1 to 2 hours. After completion of the binding, the unbound ligands were washed using a recovery solution to separate the same, the extent of ligand binding was measured using a radiation detection device or fluorescence reader, and the signal intensities were analyzed to calculate the ligand binding inhibition ratio. The degree of binding inhibition according to the concentration of AST-DT-218 was plotted to derive the IC50 value.

HCT116 = assay: Dose response curve, cell survival, 48 hours, HCT116; type: cell-based; details: Homo sapiens, HCT-116, Colorectal Carcinoma, read-out: IC50 of AST-DT-218, HCT116
Procedure: as §2

Hep3B [8] = assay: Dose response curve, cell survival, 48 hours, Hep3B; type: cell-based; details: Homo sapiens, Hepatocellular Carcinoma, read-out: IC50 of AST-DT-218, Hep3B
Procedure: as §2

CRBN proteins, sequence (Q96SW2 whole entry): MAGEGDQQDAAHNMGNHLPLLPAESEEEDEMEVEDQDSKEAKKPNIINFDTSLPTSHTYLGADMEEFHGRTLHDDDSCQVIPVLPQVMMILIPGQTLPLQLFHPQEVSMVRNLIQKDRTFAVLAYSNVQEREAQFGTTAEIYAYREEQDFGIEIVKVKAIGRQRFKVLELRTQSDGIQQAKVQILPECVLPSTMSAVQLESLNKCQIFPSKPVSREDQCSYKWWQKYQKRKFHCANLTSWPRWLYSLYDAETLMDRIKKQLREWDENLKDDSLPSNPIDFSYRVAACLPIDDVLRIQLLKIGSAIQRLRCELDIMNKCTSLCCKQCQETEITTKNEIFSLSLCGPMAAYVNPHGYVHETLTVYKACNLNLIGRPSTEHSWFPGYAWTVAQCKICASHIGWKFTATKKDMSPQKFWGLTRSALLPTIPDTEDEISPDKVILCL
T1 sequence (Q12809 whole entry): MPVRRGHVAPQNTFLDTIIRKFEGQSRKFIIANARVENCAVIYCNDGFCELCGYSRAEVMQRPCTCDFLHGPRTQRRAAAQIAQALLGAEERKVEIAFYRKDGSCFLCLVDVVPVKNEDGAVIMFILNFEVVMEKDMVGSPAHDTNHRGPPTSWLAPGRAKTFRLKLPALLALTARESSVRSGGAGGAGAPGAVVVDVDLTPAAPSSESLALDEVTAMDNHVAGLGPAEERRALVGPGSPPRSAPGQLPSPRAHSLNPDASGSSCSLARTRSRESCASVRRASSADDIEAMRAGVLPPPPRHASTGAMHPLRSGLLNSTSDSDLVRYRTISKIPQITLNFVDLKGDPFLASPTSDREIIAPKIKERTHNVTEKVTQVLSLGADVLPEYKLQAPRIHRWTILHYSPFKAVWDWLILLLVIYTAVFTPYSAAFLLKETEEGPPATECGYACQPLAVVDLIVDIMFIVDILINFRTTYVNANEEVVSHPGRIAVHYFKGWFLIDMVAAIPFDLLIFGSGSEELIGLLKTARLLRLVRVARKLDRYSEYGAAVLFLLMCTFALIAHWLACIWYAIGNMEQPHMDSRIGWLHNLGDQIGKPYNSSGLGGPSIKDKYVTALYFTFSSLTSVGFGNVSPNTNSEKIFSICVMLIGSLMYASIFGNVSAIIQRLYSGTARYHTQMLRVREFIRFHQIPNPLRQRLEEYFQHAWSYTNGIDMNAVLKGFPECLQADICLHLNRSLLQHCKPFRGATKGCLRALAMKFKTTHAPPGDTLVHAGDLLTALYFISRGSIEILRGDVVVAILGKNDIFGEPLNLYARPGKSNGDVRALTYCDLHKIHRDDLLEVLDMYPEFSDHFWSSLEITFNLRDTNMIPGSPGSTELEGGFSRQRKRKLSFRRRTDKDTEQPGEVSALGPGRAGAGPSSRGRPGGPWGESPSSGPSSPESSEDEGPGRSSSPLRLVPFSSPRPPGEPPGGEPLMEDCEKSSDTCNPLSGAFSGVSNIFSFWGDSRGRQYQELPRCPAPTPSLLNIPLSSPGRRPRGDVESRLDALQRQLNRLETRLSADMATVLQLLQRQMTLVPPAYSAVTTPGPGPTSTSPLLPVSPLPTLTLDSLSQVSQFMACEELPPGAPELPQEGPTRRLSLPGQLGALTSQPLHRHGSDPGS

O=[N+]([O-])c1ccc2c(c1)Cc1ccccc1-2 [Example 2-NF, 2-nitrofluorene]
number of mutant colonies (TA98 and TA100 strains): significant increase

C[C@H](CO)Nc1cccc2c1C(=O)N(C1CCC(=O)NC1=O)C2=O (stereo partly drawn) [AST-DT-220, 2-(2,6-dioxopiperidin-3-yl)-4-(((R)-1-hydroxypropan-2-yl)amino)isoindoline-1,3-dione]
Kd (CRBN proteins): 52 nM

Nc1ccc2cc3ccccc3cc2c1 [Example 2-AA, 2-aminoanthracene]
number of mutant colonies (TA98 and TA100 strains): significant increase

COc1ccc([C@@H](C)Nc2cccc3c2C(=O)N(C2CCC(=O)NC2=O)C3=O)cc1 (stereo partly drawn) [AST-DT-218, 2-(2,6-dioxopiperidin-3-yl)-4-(((R)-1-(4-methoxyphenyl)ethyl)amino)isoindoline-1,3-dione]
IC50 (Huh7 [1]): 693 nM | IC50 (AGS): 254 nM | IC50 (NCI-H460): 242 nM | IC50 (Hep3B [2]): 378 nM | IC50 (PANC-1): 674 nM | IC50 (A375): 227 nM | IC50 (Mia-Paca-2): 292 nM | weight loss or abnormal behavior [3]: no weight loss or abnormal behavior | changes in clinical symptoms, body weight, food consumption, ophthalmological examination, organ weights, and autopsies ([4]; single oral dose up to 2,000 mg/kg, 15 days observation): no toxicologically significant changes | Clinical Signs ([4]; single p.o. dose 500 mg/kg, all animals, day 2): colored stool | Clinical Signs ([4]; single p.o. dose 1,000 mg/kg, all animals, day 2): colored stool | Clinical Signs ([4]; single p.o. dose 2,000 mg/kg, all animals, day 2): colored stool | Clinical Signs ([4]; single p.o. dose 2,000 mg/kg, animal #19, day 14-15): loss of fur | Clinical Signs ([4]; single p.o. dose 2,000 mg/kg, animal #40, day 3): colored stool | Clinical Signs ([4]; single p.o. dose 2,000 mg/kg, animals #18 to #20, day 3): colored stool | IC50 (Huh7 [5]): 750 nM | IC50 (NCI-H1299): 390 nM | IC50 (HT29): 340 nM | IC50 (SNU449): 155 nM | IC50 (MDA-MB-231): 636 nM | possibility of causing cardiotoxicity (hERG patch clamp) (hERG channel [6]): low possibility of causing cardiotoxicity | number of mutant colonies (TA100 strain; TA100, regardless of presence or absence of S9 mixture): no significant increase | Mutagenic Data Points w/ S9 (TA100 strain; TA100, test conc. 20.5-5,000 μg/mL, with S9): No | Mutagenic Data Points w/o S9 (TA100 strain; TA100, test conc. 20.5-5,000 μg/mL, without S9): No | number of mutant colonies (TA98 strain; TA98, regardless of presence or absence of S9 mixture): no significant increase | Mutagenic Data Points w/ S9 (TA98 strain; TA98, test conc. 20.5-5,000 μg/mL, with S9): No | Mutagenic Data Points w/o S9 (TA98 strain; TA98, test conc. 20.5-5,000 μg/mL, without S9): No | IC50 (SNU475): 1450 nM | Kd (CRBN proteins): 16 nM | possibility of causing cardiotoxicity (hERG ligand binding) (hERG channel [7]): low possibility of causing cardiotoxicity | IC50 (HCT116): 187 nM | IC50 (Hep3B [8]): 882 nM

CNC(=O)c1cc(Oc2ccc(NC(=O)Nc3ccc(Cl)c(C(F)(F)F)c3)cc2)ccn1 [Sorafenib, reference compound]
IC50 (Hep3B [2]): 5680 nM | IC50 (Huh7 [5]): 4370 nM | IC50 (SNU449): 11300 nM

CCCC(C)Nc1cccc2c1C(=O)N(C1CCC(=O)NC1=O)C2=O (stereo in doubt) [AST-DT-135, 2-(2,6-dioxopiperidin-3-yl)-4-(((S)-pentan-2-yl)amino)isoindoline-1,3-dione]
Kd (CRBN proteins): 29 nM
